One experiment concerns IL-2 secretion. The experiment can be described thus: IL-2 ELISA of cell culture supernatant after T cell activation. Format: cell-based, human. As to the method:
IL-2 release into cell culture supernatant was detected by a human IL-2 ELISA development kit (PeproTech, Rocky Hill, N.J.) according to the manufacture's instruction. Briefly, each well of a plate was coated with 100 μl of capture antibody (1 μg/ml) and incubated overnight at room temperature, then washed and blocked with 300 μl of blocking solution for one hour at room temperature. Samples in plates were incubated for 1 hour at 37° C., then washed and incubated with 100 μl of detection antibody (0.5 μg/ml) for 1 hour at 37° C. Plates were washed and incubated with 100 μl of the avidin-peroxidase conjugate (1:2000 dilution) for 30 minutes at room temperature followed by washing and incubation with 100 μl of Tetramethylbenzidine (TMB) substrate buffer. Plates were kinetically read using ELx808 automatic microplate reader (Bio-Tek Instruments, Inc. Winooski, Vt.) at 630 nm.

Another experiment has as its system F-actin. The experiment can be described thus: Competitive binding of phalloidin to F-actin. The settings on record: 120 nM.
The test system of experiment [1] is HIV-1. The experiment can be described thus: HIV-1 infection of T cells pre-activated with PHA plus IL-2. In kind it is cell-based, HIV-1NL4-3. The conditions noted are these: similar Jas treatment (120 nM). As to the method: (§1) Thus, the effect of Jas on T cell activity was determined. FIG. 3A illustrates inhibition of HIV-1 latent infection by Jas. Effects of Jas on LFA-1 activation also were tested. Jas treated or untreated resting T cells were activated by anti-CD3/CD28 bead and stained with human ICAM-1/Fc chimera and analyzed by flow cytometer. The effects of Jas on IL-2 secretion also were measured. […] Cells were treated with Jas for 2 hours, washed, infected with HIV-1 for 5 days, then activated by anti-CD3/CD28 bead. […] Following infection, cellular DNA was PCR amplified for viral late DNA and β-actin pseudogene. Cells were pre-activated with PHA plus IL-2, then treated and infected as in FIG. 3A. […] CEM-SS cell were treated and infected as in FIG. 3A. Effects of Jas on HIV-1 infection of resting T cells pre-stimulated with anti-CD4/CXCR4 bead (2 beads/cell) are shown in FIG. 3E. Pre-stimulated cells were treated and infected as in FIG. 3A.

The subject of experiment [2] is HIV-1. The experiment can be described thus: HIV-1 infection of transformed CEM-SS cells. In kind it is cell-based, HIV-1NL4-3. As for the experimental part: as §1
The test system of the next experiment is LFA-1 activation. The experiment can be described thus: LFA-1 activation staining (ICAM-1/Fc chimera, flow cytometry) of T cells activated by anti-CD3/CD28 bead. Format: cell-based, human. As for the experimental part: Half million CD4 T cells in 500 μl culture medium were treated with 5 μl of human IgG (Jackson Immuno Research, West Grove, Pa.) to block non-specific staining. Cells were stained with 10 μl (50 μg/ml) of human ICAM-1 Fc chimera (R&D System, Minneapolis, Minn.) for 20 min at 4° C. Cells were washed and blocked by 5 μl of mouse IgG (Jackson ImmunoResearch, West Grove, Pa.), followed by the addition of 10 μl of FITC labeled mouse anti-human Fc (Jackson ImmunoResearch, West Grove, Pa.), and incubated for 20 min at 4° C. Cells were finally washed and resuspended in 500 μl of 1% paraformaldehyde for flow cytometry.
as §1, with “Effects of Jas on HIV-1 infection of resting T cells pre-stimulated with anti-CD4/CXCR4 bead (2 beads/cell) are shown in FIG. 3E. Pre-stimulated cells were treated and infected as in FIG. 3A.” left out
In general terms: A flow cytometer gives signals particle by particle.

The test system of experiment [3] is HIV-1. The experiment can be described thus: HIV-1 latent infection of resting CD4 T cells, viral replication assay (p24 ELISA) after anti-CD3/CD28 activation. Format: cell-based, HIV-1NL4-3. The conditions noted are these: for inhibition of HIV replication in resting T cells: 2 hours before infection. As to the method:
Virus stocks of the HIV-1NL4-3 (Adachi et al. J Virol 59(2), 284-91 (1986)) were prepared by transfection of HeLa cells with cloned proviral DNA as described in Wu and Marsh (2001). Supernatant was harvested at 48 hours, and filtered through a 0.45 μm nitrocellulose membrane. Virus titer (TCID50) was measured by infection of a Rev-CEM indicator cell line which was constructed through stable integration of a Rev-dependent GFP expression lentiviral vector into CEM-SS. […] For infection of resting CD4 T cells, viruses were first titrated to determine minimal levels detectable by p24 ELISA in replication assays described below. Unless specified, for most replication assays, 10^3.5 to 10^4.5 TCID50 units of HIV-1 were used to infect 10^6 cells. For infection procedure, CD4 T cells were incubated with the virus for 2 hours, then washed twice with medium to remove unbound virus. Infected cells were resuspended into fresh RPMI 1604 medium supplemented with 10% heat-inactivated fetal bovine serum, penicillin (50 U/ml) and streptomycin (50 μg/ml) at a density of 10^6 per ml and incubated for 5 days without stimulation. Cells were activated at day 5 with anti-CD3/CD28 magnetic beads at 4 beads per cells. For viral replication assay, 10% of infected cells were taken at 1, 3, 5, 6, 7, 8, 9 days post infection. Cells were pelleted and the supernatant was saved for p24 ELISA. Levels of p24 in the supernatant were measured by using Coulter HIV-1 p24 Assay Kit (Beckman Coulter, Inc. Miami, Fla.). Plates were kinetically read using ELx808 automatic microplate reader (Bio-Tek Instruments, Inc. Winooski, Vt.) at 630 nm.
Resting CD4 T cells were treated with pertussis toxin (Sigma, St. Louis, Mo.) at a final concentration of 100 ng/ml for 2 hours, then infected with HIV-1. Following infection, cells were washed 2 to 3 times to remove cell-free virus and the inhibitor. Cells were treated with Jasplakinolide (Molecular Probes, Eugene, Oreg.) for 1 to 2 hours or Latrunculin A (Biomol, Plymouth Meeting, Pa.) for 5 minutes at various concentrations, washed twice with medium, then infected with HIV-1. Following infection, cells were washed twice to remove cell free virus. Cells were treated with 200 nM of Staurosporine (Biomol, Plymouth Meeting, Pa.) for 2 hours, then infected with HIV-1. Following infection, cells were washed twice to remove cell-free virus and the inhibitor.
Resting CD4 T cells were treated with S3 or Q104 for I to 2 hours, then infected with HIV-1. Following infection, cells were washed 2 to 3 times to remove cell-free virus and the peptides.
Effects of Jas on LFA-1 activation also were tested. Jas treated or untreated resting T cells were activated by anti-CD3/CD28 bead and stained with human ICAM-1/Fc chimera and analyzed by flow cytometer. The effects of Jas on IL-2 secretion also were measured. […] Cells were treated with Jas for 2 hours, washed, infected with HIV-1 for 5 days, then activated by anti-CD3/CD28 bead. […] Following infection, cellular DNA was PCR amplified for viral late DNA and β-actin pseudogene. Cells were pre-activated with PHA plus IL-2, then treated and infected as in FIG. 3A. […] CEM-SS cell were treated and infected as in FIG. 3A.

With `C/C1=C\[C@H](C)C[C@H](C)OC(=O)C[C@H](c2ccc(O)cc2)NC(=O)[C@@H](Cc2c(Br)[nH]c3ccccc23)N(C)C(=O)[C@H](C)NC(=O)[C@@H](C)C1` [Jas, Jasplakinolide], the “effect on IL-2 secretion” value in the experiment on IL-2 secretion (120 nM and below) was “no significant effect”. The “effect on IL-2 expression following T cell activation” value in the experiment on IL-2 secretion (600 nM and above) is listed as “inhibited IL-2 expression”. Further, the “inhibition of subsequent competitive binding of phalloidin to F-actin” value in the experiment with F-actin is listed as “significantly inhibited”. For the same molecule, in the experiment on HIV-1 [1], the “inhibition of HIV replication in pre-activated T cells” value is given as “no inhibition”. In the experiment on HIV-1 [2] (3μM), the “inhibition of HIV replication in GEM-SS” value is “did inhibit HIV replication”. Besides, the “inhibition of HIV replication in transformed CEM-SS” value in the experiment on HIV-1 [2] (similar Jas treatment (120 nM)) is recorded as “no inhibition”. The “inhibition of LFA-1 activation” value with LFA-1 activation (120 nM and below) is listed as “no detectable inhibition”; in the experiment with LFA-1 activation (3 1μM Jas) it was “greatly inhibited”. Moreover, the figures for the “inhibition of HIV replication in resting T cells” value with HIV-1 [3] (24 nM), in the experiment with HIV-1 [3] (120 nM) and in the experiment with HIV-1 [3] (600 nM) were “partial inhibition”, “Complete inhibition” and “Complete inhibition”, respectively. Also, the “inhibition of HIV replication in resting T cells pre-stimulated with CD4/CXCR4 bead” value in the experiment with HIV-1 [3] (120 nM, pre-stimulation 2 beads/cell) is reported as “completely abolished the inhibition”.

The values are drawn from patent US7662547B2, “Compositions and methods for detecting and treating HIV infections” (priority 2006, dated 2010).
